Measurements taken from patent publication US20240301319A1, “PERFUMING COMPOSITIONS” (FIRMNICH SA, priority 2017, published 2024).
Like-named read-outs stand apart in the source and are kept apart here. One block for each compound: values may come before it.

Assays:
[1] = Volatility of perfuming compounds (Tables 4 to 10), with top/middle/bottom note type; format: physicochemical
Procedure, shortened: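 Note type follows from air volatility (μg/l): bottom 49–0.1, middle 99–50, top 70,000–100. Compounds are listed within watery, green, fruity, citrus, sweet, gourmand and woody families.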

[2] = Odor threshold and odor value of perfuming compounds (Tables 4 to 10)
[3] = Table 7, citrus note, top, middle or bottom note
[4] = Table 7, citrus note, equals volatility divided by odor threshold
[5] = Table 6, perfuming compounds having a fruity note
[6] = Table 6, perfuming compounds having a fruity note, note type by volatility
[7] = Table 8, perfuming compounds having a sweet note
[8] = note type (Top/Middle/Bottom) by volatility, perfuming compounds having a green note
[9] = perfuming compounds having a green note

Compound: CC(=O)OCCc1ccccc1 [2-PHENYLETHYL ACETATE]
Volatility [1, 5]: 201.26 μg/l air
Type [1, 6]: TOP (perfuming compounds having a volatility ranging from 70,000 to 100 μg/l in air are referred to as “top notes”)
Volatility [1, 7]: 201.26 μg/l air
Type ([1]; Table 8, perfuming compounds having a sweet note, note type by volatility): Top
Volatility ([1]; Table 9, gourmand note): 201.26 μg/l air
Type ([1]; Table 9, perfuming compounds having a gourmand note, note type by volatility): Top
Odor Threshold [2, 7]: 2.14E−03 μg/l air
Odor Value [2, 7]: 9.38E+04
Odor Threshold ([2]; Table 9, gourmand note): 2.14E−03 μg/l air

Compound: C[C@@H]1CC[C@@H](C(C)(C)S)C(=O)C1 [(1R,4R)-8-MERCAPTO-3-P-MENTHANONE]
Volatility [1, 5]: 155.12 μg/l air
Type [1, 6]: TOP (perfuming compounds having a volatility ranging from 70,000 to 100 μg/l in air are referred to as “top notes”)
Type [1, 8]: Top
Volatility (μg/l air) [1, 9]: 155.12 μg/l air
Odor Threshold (μg/l air) [2, 9]: 3.43E−05 μg/l air

Compound: CCCC1CCC(O)C(OC)C1 (centres unmarked) [2-METHOXY-4-PROPYL-1-CYCLOHEXANOL]
Volatility (μg/l air) [1]: 189.74 μg/l air
Type [1, 8]: Top
Odor Threshold (μg/l air) [2, 9]: 2.85E−02 μg/l air

Compound: CCC(=O)OCc1ccccc1 [BENZYL PROPANOATE]
Volatility [1, 5]: 113.60 μg/l air
Type [1, 6]: TOP (perfuming compounds having a volatility ranging from 70,000 to 100 μg/l in air are referred to as “top notes”)
Type [1, 8]: Top
Volatility (μg/l air) [1, 9]: 113.60 μg/l air
Odor Threshold [2, 5]: 2.81E−02 μg/l air
Odor Value [2, 5]: 4.04E+03
Odor Threshold (μg/l air) [2, 9]: 2.81E−02 μg/l air

Compound: CCOC(=O)C1OC1(C)c1ccccc1 (centres unmarked) [ETHYL 2,3-EPDXY-3-PHENYLBUTANOATE]
Volatility [1, 5]: 12.97 μg/l air
Type [1, 6]: Bottom
Odor Threshold [2, 5]: 2.28E−05 μg/l air
Odor Value [2, 5]: 5.68E+05

Compound: (Z)-3,7-DIMETHYL-1,6-NONADIEN-3-OL (A) + (E)-3,7-DIMETHYL-1,6-NONADIEN-3-OL (B)
Volatility (μg/l air) ([1]; Table 7, citrus note): 283.43 μg/l air
Type [1, 3]: Top
Odor Threshold (μg/l air) ([2]; Table 7, citrus note): 1.38E−03 μg/l air
Odor Value [2, 4]: 2.05E+05

Compound: C=CC(C)(O)CCC=C(C)C (racemic) [(+−)-3,7-dimethyl-1,6-octadien-3-ol]
Volatility [1, 5]: 896.72 μg/l air
Type [1, 6]: TOP (perfuming compounds having a volatility ranging from 70,000 to 100 μg/l in air are referred to as “top notes”)
Volatility (μg/l air) ([1]; Table 7, citrus note): 896.72 μg/l air
Type [1, 3]: Top
Odor Threshold (μg/l air) ([2]; Table 7, citrus note): 8.89E−05 μg/l air
Odor Value [2, 4]: 1.01E+07

Second part, led by results:

Volatility (μg/l air) ([1]; Table 7, citrus note): 659.22 μg/l air
Type [1, 3]: Top
Compound: (A) + (+−)-3,5,6,6-tetramethyl-4-methylidene-2-heptanone (B) + (+−)-(4E)-3,4,5,6,6-pentamethyl-4-hepten-2-one (C) + (+−)-(3Z)-3,4,5,6,6-pentamethyl-3-hepten-2-one (D) + (+−)-(3E)-3,4,5,6,6-pentamethyl-3-hepten-2-one (E)
Odor Threshold (μg/l air) ([2]; Table 7, citrus note): 7.24E−02 μg/l air
Odor Value [2, 4]: 9.11E+03

Volatility [1, 5]: 50.65 μg/l air
Type [1, 6]: Middle
Type [1, 8]: Middle
Volatility (μg/l air) [1, 9]: 50.65 μg/l air
Compound: CC(=O)OC(C)CC(C)(C)c1ccccc1 (racemic) [(+−)-1,3-DIMETHYL-3-PHENYLBUTYL ACETATE]
Odor Threshold [2, 5]: 1.06E−02 μg/l air
Odor Value [2, 5]: 4.77E+03
Odor Threshold (μg/l air) [2, 9]: 1.06E−02 μg/l air

Type [1, 8]: Top
Volatility (μg/l air) [1, 9]: 3752.17 μg/l air
Compound: CCC/C=C/CO [(E)-2-HEXEN-1-OL]
Odor Threshold (μg/l air) [2, 9]: 1.29E−01 μg/l air

Volatility (μg/l air) ([1]; Table 4, watery note): 297.74 μg/l air
Compound: CCCCCCCCC(C)C=O (racemic) [(+−)-2-methyldecanal″]
Type ([1]; Table 4, watery note, top, middle or bottom note): TOP (perfuming compounds having a volatility ranging from 70,000 to 100 μg/l in air are referred to as “top notes”)
Odor Threshold (μg/l air) ([2]; Table 4, watery note): 9.00E−04 μg/l air
Odor Value ([2]; Table 4, watery note, equals volatility divided by odor threshold): 3.31E+05
